Measured values reported in patent EP0714662A1, “ANTIALLERGIC AGENT” (MEIJI MILK PRODUCTS COMPANY LIMITED, priority 1993, dated 1995).
Ends that are not written are not given here. Peptide text beside a SMILES is read from it.

How the values were obtained:
[1] = tested on: serum IgE from 15 patients suffering from mite rhinallergosis; assay: Enzyme antibody assay: binding of solid phase Der p II overlapping peptides to patients' serum IgE; design: species or system human; details: serum from each of 15 patients
Method: The complete primary structure of the amino acid sequence of a Der p II protein was determined after cDNA was isolated therefrom by Chua et al. (Int. Arch. Allergy Appl. Immunol. 91: 118-123, 1990). Based on the amino acid sequence, peptides were synthesized on a solid phase using a multipin system (manufactured by Chiron) and coupling reagents, Fmoc-amino acid and DCC (dicyclohexyl carbodiimide) (Geysen, H.M. et al., Proc. Natl. Acad. Sci. USA. 81:3998-4002, 1984). Sixty-one kinds of peptides were synthesized, the first peptide comprising the first through ninth amino acids of the N-terminal of Der p II, the second peptide comprising the third through eleventh amino acids of the N-terminal, and the third through 61st peptides being prepared in an analogous manner.
The RAST (radio-allergosorbent test, Pharmacia) values as determined using antigens from two mite species, Dermatophagoides pteronyssinus (Der p) and Dermatophagoides farina (D f), were class 4. Each of the above-mentioned 61 synthesized peptides and 100 µl of each patient's serum were placed in a 96-well plate and reacted overnight at room temperature. Synthesized peptides in a solid phase were washed three times to remove the patient's serum using a washing solution of 0.05% Tween 20/0.15 M NaCl/Tris-HCl (pH 7.5). 100 µl of galactosidase-labelled anti-human IgE antibodies (Pharmacia) were diluted to 40-fold using a 1:9 diluted Block-ace (product of Dainippon Seiyaku K.K.). The diluted solution was added to a 96-well plate, each synthesized solid phase peptide was also added, and reaction, was allowed to proceed overnight at room temperature. The synthesized solid phase peptide was washed with the same washing solution five times. Thereafter, to a 96-well black plate (manufactured by Dainippon Seiyaku K.K.), were added 200 µl of a solution of 0.1 mM 4-methylumbelliferyl-β-D-galactopyranoside in 0.1% bovine serum albumin/0.1 M NaCl/1 mM MgCl₂/0.1% sodium azide/10 mM phosphate buffer (pH 7.0). Subsequently, the synthesized solid phase peptide was added and reacted for 2 hours at 37°C. After completion of reaction, 100 µl of a reaction terminating solution (0.1 M glycin/NaOH, pH 10.3) were added to each well, and absorbance was measured using a fluorospectrophotometer for 96-well plates (Manufactured by Flow). This reaction was studied for each of 15 patients.

[2] = tested on: serum IgE of cryptomeria pollinosis patients; assay: Enzyme antibody assay: binding of solid phase Cry j II overlapping peptides to patients' serum IgE; design: species or system human
Excerpt: Presently, however, the C-terminal amino acids are unknown. Therefore, overlapping peptides were synthesized on a solid phase using an Fmoc-amino acid and multipin system (manufactured by Chiron) so as to cover all the proteins consisting of 460 amino acid residues (Sequence No. 1) other than the N-terminal moiety. The first peptide comprises the first through ninth amino acids in the N-terminal moiety of a Cry j II protein. The second peptide comprises the third through eleventh amino acids in the N-terminal moiety.
Subsequently, using a washing solution of 0.05% Tween 20/0.15 M NaCl/Tris-HCl (pH 7.5), synthesized solid phase peptides were washed three times to remove the patient's serum. Using a 1:9 diluted Block-ace (product of Dainippon Seiyaku K.K.), 100 µl of galactosidase-labelled anti-human IgE antibodies (Pharmacia) were diluted to 40-fold. The diluted solution was added to a 96-well plate, and then each synthesized solid phase peptide was also added. Reaction was allowed to proceed overnight at room temperature. The synthesized solid phase peptide was washed with the same washing solution five times. Thereafter, 200 µl of a solution of 0.1 mM 4-methylumbelliferyl-β-D-galactopyranoside in 0.1% bovine serum albumin/0.1 M NaCl/1 mM MgCl₂/0.1% sodium azide/10 mM phosphate buffer (pH 7.0) were added to a 96-well black plate (manufactured by Dainippon Seiyaku K.K.). Subsequently, the synthesized solid phase peptide was added and reacted for 2 hours at 37°C.

basophils of a patient = assay: Histamine release inhibition test with peptide D, blood of egg allergy patients; assay type: cell-based, human
Method: The histamine release inhibition test was performed using a histamine kit "Eiken" manufactured by Eiken Kagaku K.K. Briefly, heparinized peripheral blood was collected from each patient, and the blood was diluted to a 1:1 ratio using a buffer for release tests. Equivalent amounts of a diluted peptide D (which had been diluted to double the density of an inhibitory concentration using a buffer for release tests) and a diluted blood from a patient (which had been diluted to a 1:1 ratio) were mixed and allowed to react overnight at 4°C. Subsequently, fifty µl of peptide B or OVA diluted with a buffer for release was mixed with 100 µl of the patient's blood with which peptide D was reacted. […] After the histamine tubes were incubated for 16 to 24 hours, the solution was drawn off using an aspirator, and measured using a gamma scintillation counter. The amount of total histamine was determined using a supernatant sample obtained by adding 1 ml of purified water to 50 µl of whole blood, freezing and thawing, then centrifugally separating. […] The ratio of the difference with respect to the total amount of histamine was calculated and taken as a histamine release ratio. Inhibition ratio (%) was calculated by the following equation: %Inhibition = {1-(histamine release ratio in the presence of an inhibitory peptide)/(histamine release ratio in the absence of an inhibitory peptide)} x 100 [formula] […]

For IATHAKIRD [synthesized peptide No. 61], the “binding reactions with IgE antibodies” value [1] was “exhibited binding reactions with IgE antibodies”.
In the case of VVTVKVMGD [synthesized peptide No. 53], the “binding reactions with IgE antibodies” value [1] was “exhibited binding reactions with IgE antibodies”.
With “NLFFNGPCQ [Asn-Leu-Phe-Phe-Asn-Gly-Pro-Cys-Gln]” the “reaction with serum IgE of cryptomeria pollinosis patients” value (from here on “reaction with serum IgE”) [2] was “reacted serum IgE of cryptomeria pollinosis patients”.
In the case of NVPKIAPKS [synthesized peptide No. 47], the “binding reactions with IgE antibodies” value [1] was “exhibited binding reactions with IgE antibodies”.
In the case of SIDGLEVDV [synthesized peptide No. 29], the “binding reactions with IgE antibodies” value [1] was “exhibited binding reactions with IgE antibodies”.
In the case of PKSENVVVT [synthesized peptide No. 50], the “binding reactions with IgE antibodies” value [1] was “exhibited binding reactions with IgE antibodies”.
With “KWVNGREIC [Lys-Trp-Val-Asn-Gly-Arg-Glu-Ile-Cys]” the “reaction with serum IgE” value [2] was “reacted serum IgE of cryptomeria pollinosis patients”.
For “SASACQNQR [Ser-Ala-Ser-Ala-Cys-Gln-Asn-Gln-Arg]”, the “reaction with serum IgE” value [2] was “reacted serum IgE of cryptomeria pollinosis patients”.
KIEIKASID [synthesized peptide No. 26] was tested, and the “binding reactions with IgE antibodies” value [1] was “exhibited binding reactions with IgE antibodies”.
With `C[C@@H](O)[C@H](NC(=O)[C@H](CS)NC(=O)[C@H](CC(N)=O)NC(=O)[C@@H]1CCCN1)C(=O)N[C@@H](CC(N)=O)C(=O)N[C@@H](CCCCN)C(=O)N[C@@H](CS)C(=O)N[C@@H](Cc1c[nH]cn1)C(=O)NCC(=O)O` [Pro-Asn-Cys-Thr-Asn-Lys-Cys-His-Gly] (H-PNCTNKCHG-OH) the “reaction with serum IgE” value [2] was “reacted serum IgE of cryptomeria pollinosis patients”.
For EFRADHPFLF [peptide D], the “suppression ratio of histamine release caused by untreated OVA” value (basophils of a patient; peptide D 1.4 mg/ml) was 93% and the “suppression of histamine release caused by stimulant peptide B” value (basophils of a patient; peptide D at a concentration of not less than 1.4 mg/ml) was “at least 85%”.
`C[C@H](NC(=O)[C@H](CO)NC(=O)[C@H](C)NC(=O)[C@H](CO)NC(=O)[C@@H](NC(=O)[C@@H](N)CS)[C@@H](C)O)C(=O)N[C@@H](CS)C(=O)N[C@@H](CCC(N)=O)C(=O)N[C@@H](CC(N)=O)C(=O)O` [Cys-Thr-Ser-Ala-Ser-Ala-Cys-Gln-Asn] (H-CTSASACQN-OH) was tested, and the “reaction with serum IgE” value [2] was “reacted serum IgE of cryptomeria pollinosis patients”.
FQLEAVFEA [synthesized peptide No. 18] was tested, and the “binding reactions with IgE antibodies” value [1] was “exhibited binding reactions with IgE antibodies”.
With QCKWVNGRE the “reaction with serum IgE” value [2] was “reacted serum IgE of cryptomeria pollinosis patients”.
For ANQNTKTAK [synthesized peptide No. 22], the “binding reactions with IgE antibodies” value [1] was “exhibited binding reactions with IgE antibodies”.
With SENVVVTVK [synthesized peptide No. 51] the “binding reactions with IgE antibodies” value [1] was “exhibited binding reactions with IgE antibodies”.
In the case of KCPLVKGQQ [synthesized peptide No. 39], the “binding reactions with IgE antibodies” value [1] was “exhibited binding reactions with IgE antibodies”.
